SMILES strings stand for the structures.

This is an account of results in patent US20240270745A1, “ISOQUINOLINE ALKALOID COMPOUND, AND PREPARATION METHOD THEREFOR AND USE THEREOF” (SHANGHAI INSTITUTE OF MATERIA MEDICA, CHINESE ACADEMY OF …, priority 2021, published 2024).

The target of one assay is T1, TRESK (KCNK18) (Homo sapiens, UniProt Q7Z418).
T1 sequence (Q7Z418 1-384): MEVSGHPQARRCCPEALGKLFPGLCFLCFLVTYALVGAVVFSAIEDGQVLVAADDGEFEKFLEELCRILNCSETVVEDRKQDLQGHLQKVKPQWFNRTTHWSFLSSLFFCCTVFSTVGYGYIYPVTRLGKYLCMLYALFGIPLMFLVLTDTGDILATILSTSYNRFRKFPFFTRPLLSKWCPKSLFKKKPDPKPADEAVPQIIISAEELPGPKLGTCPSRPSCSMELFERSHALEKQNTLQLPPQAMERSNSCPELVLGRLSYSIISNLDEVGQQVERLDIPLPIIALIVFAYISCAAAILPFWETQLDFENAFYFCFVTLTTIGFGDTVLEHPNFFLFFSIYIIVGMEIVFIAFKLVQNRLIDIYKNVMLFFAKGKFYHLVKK
The settings on record: in neurons; read-out: half-effective dose for inhibition of TRESK channels; cited from earlier work.

In assay [1] the test system is TASK1/TASK3 (KCNK3/KCNK9). The settings on record: in neurons; read-out: half-effective dose for inhibition of TASK1/TASK3 channels; cited from earlier work.
The test system of the next assay is hippocampal neurons. The assay is described as follows: Spontaneous firing of cultured hippocampal neurons (patch clamp). Type of assay: cell-based, SD rats. The settings on record: 10 μM, FIG. 1 A and B. As for the experimental part:
(§1) Whole-cell patch clamp recording was performed through a digital-to-analog converter, the Digidata 1440A (Axon CNS), and a patch clamp amplifier, the Axon patch 700B (Molecular Devices), and the borosilicate glass electrode used in the manual patch clamp experiment was pulled by a Sutter-P1000 electrode puller (Sutter) with a resistance about 3 MΩ. The bath solution was continuously perfused in speed of about 2 mL/min using a BPS perfusion system.
Enzyme and termination solutions with the same concentration were prepared with PBS. 90% DMEM/F12 supplemented with 10% FBS, neuron culture medium (2% B-27, 1% penicillin and streptomycin mixture, Neurobasal-A supplemented with 0.5 mM 1% GlutaMAX), and enzyme and termination solutions (all purchased from Gibco) were preheated in advance. The slides were coated in a 24-well plate in advance with 20 μg/mL polylysine. All operations were performed in a biological safety cabinet. 3 newly born SD rats that were 1-3 days old were taken out the hippocampus according to the above method. The hippocampus was cut into pieces with microdissecting scissors and digested for 8 minutes in the enzyme solution, which was slightly shaken every 2-3 minutes to make the digestion even. […] The suspension was counted on a cell counter, and adjusted to a final concentration of 10^5 cells/mL. […]

Assay [2] concerns dorsal root ganglion (DRG) neurons. Description: Evoked action potential firing in dorsal root ganglion neurons (whole-cell patch clamp). The assay is classed as cell-based, C57BL/6 mouse. The settings on record: 10 μM; 200 pA, 500 ms current stimulation; FIG. 1 C and D. From the text:
(§2) A 4- to 6-week old C57BL/6 mouse (Shanghai Slack Experimental Animal Co., Ltd.) was used for acute isolation of dorsal root ganglion neurons. First, the mouse was sacrificed by breaking the neck, and the surface skin was disinfected with 75% alcohol. The skin was cut from the neck to the buttocks, and the spine from the neck to the waist was cut, and placed in a pre-cooled phosphate buffer (PBS) (Hyclone Company) after excess muscles and blood clots were removed. The spine was cut longitudinally along the midline, and the white spinal cord and blood clots in the middle were removed by ophthalmic tweezers to expose the intervertebral foramen. The dorsal root ganglia were taken out by fine forceps, wherein the large ganglia at the waist should be stripped of their fibrous connections. Then the ganglia were cut into small pieces with microdissection scissors, added to 1 mL of a mixture of collagenase (1 mg/mL) and trypsin (0.25 mg/mL) (Sigma-Aldrich Company) for digestion for 15 min. Then a DMEM/F12 culture medium (Gibco Company) supplemented with 10% fetal calf serum was added thereto to terminate the digestion and dilute the resultant. The cells were pipetted repeatedly, and large tissue blocks were filtered out with a 70 μM cell filter. The remaining liquid was inoculated into a glass slide pre-coated with poly-lysine (Sigma-Aldrich), and cultured in an incubator at 5% CO2 and 37° C. […]
On the technique in general: Patch clamp records ionic current or voltage across a cell membrane.

Assay [3] concerns IK current in DRG neurons. The assay is described as follows: Delayed inward rectifier potassium current (IK) in DRG neurons. Type of assay: cell-based, C57BL/6 mouse.
Text: as §2, with “min.” for “min. Then a DMEM/F12 culture medium (Gibco Company) supplemented with 10% fetal calf serum was added thereto to terminate the digestion and dilute the resultant. The cells were pipetted repeatedly, and large tissue blocks were filtered out with a 70 μM cell filter. The remaining liquid was inoculated into a glass slide pre-coated with poly-lysine (Sigma-Aldrich), and cultured in an incubator at 5% CO2 and 37° C.”
(§3) The data were processed through Clampfit 10.2, and imported into an Excel table for statistics, and then sorted and analyzed for their significant differences through GraphPad Prim5 software. […] All electrophysiological experiment data were expressed as mean±standard error (mean±S.E.M.).

Assay [4] has as its system IA current in DRG neurons. The assay is described as follows: Transient outward potassium current (IA) in DRG neurons. Type of assay: cell-based, C57BL/6 mouse. The following applies: whole-cell patch clamp; IA = total minus IK; 3 μM and 10 μM in FIG. 2.
Text: as §2, with “min.” for “min. Then a DMEM/F12 culture medium (Gibco Company) supplemented with 10% fetal calf serum was added thereto to terminate the digestion and dilute the resultant. The cells were pipetted repeatedly, and large tissue blocks were filtered out with a 70 μM cell filter. The remaining liquid was inoculated into a glass slide pre-coated with poly-lysine (Sigma-Aldrich), and cultured in an incubator at 5% CO2 and 37° C.”
as §3

The test system of assay [5] is IK current of hippocampal neurons. Description: Delayed inward rectifier potassium current (IK) in hippocampal neurons. The assay is classed as cell-based, SD rats. The settings on record: 1, 3 and 10 μM, FIG. 3. On the procedure: as §1
The cell were clamped at a holding voltage of −50 mV, hyperpolarized to −110 mV, and then directly depolarized to 40 mV after 600 ms to record the whole cell potassium current (ITotal). To record the delayed […] rectifier potassium current (IK), the cells were first depolarized to −50 mV, maintained for 50 ms, and then depolarized to 40 mV. 10 μM HJ-70 was administered by perfusion to detect drug efficacy, and 5 mM TEA was administered as a positive control. […]
as §3

Assay [6] relates to IA current of hippocampal neurons. The assay is described as follows: Transient outward potassium current (IA) in hippocampal neurons. The following applies: 1, 3 and 10 μM, FIG. 3. Type of assay: cell-based, SD rats. On the procedure: as §1
The cell were clamped at a holding voltage of −50 mV, hyperpolarized to −110 mV, and then directly depolarized to 40 mV after 600 ms to record the whole cell potassium current (ITotal). To record the delayed […] rectifier potassium current (IK), the cells were first depolarized to −50 mV, maintained for 50 ms, and then depolarized to 40 mV. […]
as §3

For assay [7], the system named is sodium current in hippocampal neurons. The assay is described as follows: Sodium current in hippocampal neurons. The assay is classed as cell-based, SD rats. The settings on record: 10 μM; membrane potential clamped at −90 mV. As for the experimental part:
as §1
9 mg of protease (type XXIII, Sigma) was weighed in advance, 5 mg of bovine serum albumin (BSA, Shanghai Sangon) and 5 mg of trypsin inhibitor (Sigma-Aldrich) were weighed, and 3 mg/mL and 5 mg/mL enzyme and termination solutions were respectively prepared with a dissociation solution, and incubated at 32° C. water bath. 2 SD rats that were 1-7 days old (Shanghai Slack Experimental Animal Co., Ltd.) were decapitated and cut the cortex and skull to take out the complete brain, which was divided into two parts along the midline of the brain, and the hippocampus was located in the temporal lobe of the brain. The temporal lobe cortex was removed to expose the hippocampal gyrus for dissection. Then the hippocampus tissue was slightly moistened with the dissociation solution, and cut into thin slices transversely with a razor blade. […]

The target of another assay is T2, Kv2.1 channel (Homo sapiens, UniProt Q14721).
T2 construct: expressed in transfected cells; host or cells: CHO-K1 cells (ATCC), transient co-transfection with EGFP plasmid at 9:1
T2 sequence (Q14721 1-858): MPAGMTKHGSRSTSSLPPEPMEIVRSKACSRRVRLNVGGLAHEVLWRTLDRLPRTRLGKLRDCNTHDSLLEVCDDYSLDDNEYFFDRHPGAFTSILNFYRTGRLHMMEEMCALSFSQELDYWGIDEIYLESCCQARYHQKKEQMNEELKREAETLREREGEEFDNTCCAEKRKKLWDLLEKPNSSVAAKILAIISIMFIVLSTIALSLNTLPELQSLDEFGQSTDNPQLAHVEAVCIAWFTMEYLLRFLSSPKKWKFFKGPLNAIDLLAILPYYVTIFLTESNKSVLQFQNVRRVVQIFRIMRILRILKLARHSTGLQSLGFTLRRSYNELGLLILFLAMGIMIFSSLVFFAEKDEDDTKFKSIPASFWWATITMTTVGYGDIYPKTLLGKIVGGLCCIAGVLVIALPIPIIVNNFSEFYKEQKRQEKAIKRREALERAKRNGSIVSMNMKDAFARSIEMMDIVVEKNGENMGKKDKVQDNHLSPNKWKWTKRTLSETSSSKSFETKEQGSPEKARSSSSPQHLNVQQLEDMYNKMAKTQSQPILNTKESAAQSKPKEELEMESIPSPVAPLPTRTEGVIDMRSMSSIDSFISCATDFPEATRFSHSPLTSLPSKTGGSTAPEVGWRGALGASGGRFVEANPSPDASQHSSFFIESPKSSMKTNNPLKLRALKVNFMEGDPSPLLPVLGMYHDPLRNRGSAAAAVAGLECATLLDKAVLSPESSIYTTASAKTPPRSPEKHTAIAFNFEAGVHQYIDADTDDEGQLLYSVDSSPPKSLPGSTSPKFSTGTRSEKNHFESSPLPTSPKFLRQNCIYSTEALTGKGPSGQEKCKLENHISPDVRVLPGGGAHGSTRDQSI
The assay is described as follows: Kv2.1 channel current, transiently expressed in CHO-K1 cells (patch clamp). Type of assay: cell-based. The settings on record: 10 μM, FIG. 5 A and B. An excerpt:
(§4) First, TRESK plasmid (a kind gift from Professor Min LI of Johns Hopkins University) and Kv2.1 plasmid (a kind gift from Professor Min LI of Johns Hopkins University) were each co-transfected into CHO-K1 cells (ATCC) with green fluorescent protein EGFP plasmid (a kind gift from Professor Jia LI of SHANGHAI INSTITUTE OF MATERIA MEDICA, CHINESE ACADEMY OF SCIENCES) at a ratio of 9:1, and the cells with green fluorescence were selected under a fluorescence microscope to perform the experiments. The cells were clamped at −70 m V, first hyperpolarized to −130 mV, given a ramp depolarization stimulus to 20 mV, maintained for 100 ms, and then hyperpolarized to 0 mV to record the potassium channel current. 10 μM HJ-70 was administered by perfusion to test the drug efficacy thereof.

A further assay addresses T3, TRESK channel (Homo sapiens, UniProt Q7Z418).
T3 construct: expressed in transfected cells; host or cells: CHO-K1 cells (ATCC), transient co-transfection with EGFP plasmid at 9:1
T3 sequence (Q7Z418 1-384): T1 sequence (Q7Z418 1-384)
The assay is described as follows: TRESK channel current, transiently expressed in CHO-K1 cells (patch clamp). Type of assay: cell-based.
Text: as §4

Assay [8] concerns formaldehyde-induced inflammatory pain. The assay is described as follows: Formalin-induced mouse inflammatory pain model. The assay is classed as in vivo. The settings on record: mice, intraperitoneal injection 30 minutes before 1% formaldehyde; 60 minutes observation. On the procedure: A 10% formaldehyde solution was diluted 10 times to prepare a 1% formaldehyde solution. 5% DMSO, 5% Tween-80 and 90% normal saline (a 0.9% NaCl solution) were used to prepare solutions of HJ-70 in 100 mg/kg and 30 mg/kg. Each mouse was administered at a dose of 0.2 mL/10 g at 30 minutes before the experiment, and then 20 μL of 1% formaldehyde solution was injected into the sole of the foot through a microsampling needle to create a formalin model. The number of licking of hind paws, flicking of hind paws, and paw lifting, and the time of paw licking and prolonged paw lifting were recorded within 60 minutes. Paw licking was scored as 3, paw flicking was scored as 2, and paw lifting was scored as 1. The pain behavior score and time were calculated to determine the analgesic activity of HJ-70.

Take `C/C=C/C=C/C=C\CC/C=C/C(=O)NCC(C)(C)O` [hydroxy-α-sanshool]: the IC50 (on TRESK (KCNK18); in [1]) was around 50 µM throughout.

With `O=c1c2ccccc2nc2n1CCc1c-2n(CCCO)c2ccccc12` [HJ-70, N-13-n-propanol rutaecarpine], the “effect on spontaneous firing of cultured hippocampal neurons” value with hippocampal neurons is reported as “significantly inhibit”. For the same compound, the “effect on evoked action potential firing frequency of DRG” value in [2] is “significantly inhibited”. The “reversibility of IK current inhibition after washout” value in [3] (DRG neurons, washout, FIG. 2 G) is reported as “completely eluted”. The “inhibition of IK current in DRG neurons” value in assay [3] (whole-cell patch clamp, 3 μM and 10 μM in FIG. 2) is recorded as “dose-dependently inhibited”. For the same compound, the “effect on IA current in DRG neurons” value in assay [4] is listed as “no significant effect”. Further, the “inhibition of IK current of hippocampal neurons” value in assay [5] is “reversibly and dose-dependently inhibited”. Moreover, in assay [6], the “effect on IA current of hippocampal neurons” value is “without affecting”. In addition, the “effect on sodium current in hippocampal neurons” value in [7] is “no effect”. Further, at Kv2.1 channel, the “inhibition of Kv2.1 channel-mediated currents” value is given as “completely inhibited”. Moreover, at TRESK channel (10 μM, CHO-K1 cells, FIG. 5 C and D), the “inhibition of TRESK channel current” value is “almost completely inhibited”. Further, the “inhibitory activity on TRESK (K2P) compared with hydroxy-α-sanshool” value at TRESK channel (comparison with reported half-effective dose of hydroxy-α-sanshool) is listed as “stronger than that of hydroxy-α-sanshool”. Moreover, the “pain behavioral response induced by plantar injection of formalin (licking time, pain score)” value in [8] is listed as “dose-dependently alleviate”.
